Where two headings read alike, the source gives them in different places.
What was measured:
[1] = target: T1, recombinant His-tagged FLT3 kinase domain (aa 569–992) (Homo sapiens, UniProt P36888); assay: ELISA-based in vitro FLT3 kinase assay; assay type: biochemical; conditions: recombinant FLT3, 300 μM ATP
T1 construct: FLT3 kinase domain (aa 569–992); His; made in house; host or cells: Sf9 cells
T1 sequence (P36888 569-992): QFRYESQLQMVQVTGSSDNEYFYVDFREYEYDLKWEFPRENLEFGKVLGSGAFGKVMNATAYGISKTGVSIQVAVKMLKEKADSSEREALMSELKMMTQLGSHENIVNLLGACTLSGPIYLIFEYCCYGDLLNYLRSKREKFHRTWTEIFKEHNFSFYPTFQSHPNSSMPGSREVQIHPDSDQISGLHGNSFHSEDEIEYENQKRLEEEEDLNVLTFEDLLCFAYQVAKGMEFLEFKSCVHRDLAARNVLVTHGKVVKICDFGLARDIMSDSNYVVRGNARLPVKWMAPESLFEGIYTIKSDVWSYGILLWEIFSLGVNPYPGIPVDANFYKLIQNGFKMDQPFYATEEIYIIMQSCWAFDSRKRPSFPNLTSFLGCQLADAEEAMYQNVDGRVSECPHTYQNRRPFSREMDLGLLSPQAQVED
Protocol: (§1) In vitro kinase assays and cell viability assays were performed as described (Mologni et al., 2022).[50] Briefly, recombinant His‐tagged FLT3 kinase domain (aa 569–992) was expressed in Sf9 cells and purified by nickel ion affinity chromatography. The purified enzyme was employed in an ELISA‐based kinase assay with 300 μM ATP and a Tyr‐phosphorylatable substrate peptide, using an anti‐phosphotyrosine antibody for detection (PY20; Santa Cruz Biotech). Cell viability was determined by MTS assay using the CellTiter 96® AQueous One Solution Cell Proliferation Assay kit (Promega) according to manufacturer's instructions. Dose‐response curves were calculated by non‐linear regression (log[inhibitor] vs normalized response) using GraphPad Prism software.

MV-4-11 cells (FLT3-ITD) = assay: Cell viability by MTS assay, MV-4-11 cells; assay type: cell-based; conditions: Homo sapiens, MV4-11, read-out: MV-4-11 (IC50, mean±SEM)
Protocol: Cellular assays were carried out on MV‐4‐11 cells, driven by the FLT3‐ITD mutation.
The purified enzyme was employed in an ELISA‐based kinase assay with 300 μM ATP and a Tyr‐phosphorylatable substrate peptide, using an anti‐phosphotyrosine antibody for detection (PY20; Santa Cruz Biotech). Cell viability was determined by MTS assay using the CellTiter 96® AQueous One Solution Cell Proliferation Assay kit (Promega) according to manufacturer's instructions. Dose‐response curves were calculated by non‐linear regression (log[inhibitor] vs normalized response) using GraphPad Prism software.

[2] = system: FLT3-wild type HL60 cells; assay: Cytotoxicity by MTS assay, control cell line HL60; assay type: cell-based; conditions: for IC50: Homo sapiens, HL-60, read-out: HL60 (IC50, mean±SEM)
Protocol: Compounds 4 a, 4 d, 4 e, 4 g and 4 q were among the best inhibitors in enzymatic assays and confirmed their activity also in cellular tests on FLT3‐driven MV‐4‐11 and on MOLM‐14 cell lines. To confirm their cellular mechanism of action, we assayed their cytotoxicity against FLT3‐wild type HL60 cells.
as §1

MOLM-14 cells (FLT3-ITD) = assay: Cell viability by MTS assay, MOLM-14 cells; assay type: cell-based; conditions: Homo sapiens, read-out: MOLM-14 (IC50, mean±SEM)
[3] = cited from earlier work
[4] = Table 1, read-out: FLT3 Kinase Activity (IC50, mean±SEM)
[5] = Table 2, FLT3-ITD cell line, MTS viability
[6] = Table 3, FLT3-wild type control cell line
[7] = Table 2, read-out: FLT3 Kinase (IC50, mean±SEM)
[8] = Table 4, control analogues lacking boronic group

| Compound | IC50 [1, 4] [µM] | IC50 (MV-4-11 cells (FLT3-ITD); [5]) [µM] | IC50 [1, 7] [µM] | also measured |
| --- | --- | --- | --- | --- |
| O=C(Nc1ccccc1)NC(Cc1cccc(C(=O)O)c1)B(O)O (stereo not shown) [1 a] | > 100 |  |  |  |
| O=C(Cc1ccc(-c2nn[nH]n2)cc1)NCB(O)O [1 b] | > 100 |  |  |  |
| Cc1onc(-c2ccccc2Cl)c1C(=O)NCB(O)O [1 c] | > 100 |  |  |  |
| O=C(Cc1cccs1)NC(B(O)O)c1ccccc1 (stereo not shown) [1 d] | > 100 |  |  |  |
| O=C(NCB(O)O)c1ccc(-c2nnn[nH]2)cc1 [1 e] | > 100 |  |  |  |
| O=C(CSc1ccncc1)NCB(O)O [1 f] | > 100 |  |  |  |
| O=C(Cc1ccc(O)c(O)c1)NCB(O)O [1 g] | > 100 |  |  |  |
| Nc1cccc(-c2cn(CC(NC(=O)Cc3ccccc3)B(O)O)nn2)c1 (stereo not shown) [2 a] | > 100 |  |  |  |
| NC(=O)c1cn(CC(NC(=O)Cc2cccs2)B(O)O)nn1 (stereo not shown) [2 b] | > 100 |  |  |  |
| Nc1nnc(SCC(=O)NC(Cn2cc(C(=O)O)nn2)B(O)O)s1 (stereo not shown) [2 c] | > 100 |  |  |  |
| CC(=O)NC(Cn1cc(-c2ccccc2)nn1)B(O)O (stereo not shown) [2 d] | > 100 |  |  |  |
| CC(=O)NC(Cn1cc(C(C)(C)O)nn1)B(O)O (stereo not shown) [2 e] | > 100 |  |  |  |
| O=S(=O)(Cc1ccccc1)NCB(O)O [3 a] | > 100 |  |  |  |
| CC(C)C(NS(=O)(=O)Cc1ccccc1)B(O)O (stereo not shown) [3 b] | > 100 |  |  |  |
| CC(NS(=O)(=O)Cc1ccccc1)B(O)O (stereo not shown) [3 c] | > 100 |  |  |  |
| Cc1ccc(S(=O)(=O)Nc2cccc(-c3cn(CB(O)O)nn3)c2)cc1 [4 a] | 18 ± 1 | 14 ± 0.2 |  | IC50 [2, 6]: > 100 µM; IC50 (MOLM-14 cells (FLT3-ITD); [5]): 5.8 ± 0.7 µM |
| NC(=O)c1cccc(-c2cn(CB(O)O)nn2)c1 [4 b] | > 100 | > 100 |  |  |
| O=C(O)c1cccc(-c2cn(CB(O)O)nn2)c1 [4 c] | > 100 | > 100 |  |  |
| Cc1cccc(-c2cn(CB(O)O)nn2)c1 [4 d] | 25 ± 2 | 11 ± 1 |  | IC50 [2, 6]: 32 ± 4 µM; HL60 (IC50, mean±SEM) [2, 6]: moderate inhibition of HL60; IC50 (MOLM-14 cells (FLT3-ITD); [5]): 3 ± 0.5 µM |
| Nc1cccc(-c2cn(CB(O)O)nn2)c1 [4 e] | 6.7 ± 1.7 | 14 ± 3 |  | IC50 [2, 6]: > 100 µM; IC50 (MOLM-14 cells (FLT3-ITD); [5]): 11 ± 1 µM |
| NS(=O)(=O)c1cccc(-c2cn(CB(O)O)nn2)c1 [4 f] | > 100 | > 100 |  |  |

| Compound | IC50 [1, 4] [µM] | IC50 (MV-4-11 cells (FLT3-ITD); [5]) [µM] | IC50 [1, 7] [µM] | also measured |
| --- | --- | --- | --- | --- |
| OB(O)Cn1cc(-c2cccc(Cl)c2)nn1 [4 g] | 18 ± 5 | 2.7 ± 0.9 |  | IC50 [2, 6]: 15 ± 1 µM; HL60 (IC50, mean±SEM) [2, 6]: moderate inhibition of HL60; IC50 (MOLM-14 cells (FLT3-ITD); [5]): 0.68 ± 0.08 µM |
| OB(O)Cn1cc(-c2cnccn2)nn1 [4 h] |  | > 100 | > 100 |  |
| OB(O)Cn1cc(-c2cccnc2)nn1 [4 i] |  | > 100 | > 100 |  |
| OB(O)Cn1cc(-c2cccs2)nn1 [4 j] |  | 100 | 76 ± 13 | IC50 (MOLM-14 cells (FLT3-ITD); [5]): 11 ± 2 µM |
| O=S(=O)(CC(F)(F)F)NCc1cn(CB(O)O)nn1 [4 k] |  | > 100 | 5.8 ± 0.9 |  |
| O=S(=O)(NCc1cn(CB(O)O)nn1)c1cccs1 [4 l] |  | > 100 | 25 ± 5 |  |
| COC(=O)c1ccc(CS(=O)(=O)NCc2cn(CB(O)O)nn2)cc1 [4 m] |  | > 100 | > 100 |  |
| O=C(O)c1cccc(CS(=O)(=O)NCc2cn(CB(O)O)nn2)c1 [4 n] |  | > 100 | > 100 |  |
| COC(=O)c1cccc(CS(=O)(=O)NCc2cn(CB(O)O)nn2)c1 [4 o] |  | > 100 | 65 ± 11 |  |
| CS(=O)(=O)NCc1cn(CB(O)O)nn1 [4 p] |  | > 100 | 42 ± 5 |  |
| Cc1ccc(S(=O)(=O)Nc2cccc(OCc3cn(CB(O)O)nn3)c2)cc1 [4 q] |  | 10 ± 1 | 18 ± 3 | IC50 [2, 6]: > 100 µM; IC50 (MOLM-14 cells (FLT3-ITD); [5]): 4.3 ± 0.5 µM |
| OB(O)Cn1cc(COc2ccccc2)nn1 [4 r] |  | 1.1 ± 0.1 | > 100 | FLT3 Kinase (IC50, mean±SEM) ([1]; Table 2): do not inhibit FLT3; IC50 (MOLM-14 cells (FLT3-ITD); [5]): 0.16 ± 0.01 µM |
| O=C(NCc1cn(CB(O)O)nn1)c1ccccc1 [4 t] |  | > 100 | 3.2 ± 0.4 |  |
| OB(O)Cn1cc(CNc2ccccc2)nn1 [4 u] |  | 7.6 ± 3.9 | > 100 | FLT3 Kinase (IC50, mean±SEM) ([1]; Table 2): lose enzymatic activity; IC50 (MOLM-14 cells (FLT3-ITD); [5]): 8.7 ± 1.4 µM |
| O=C(NCc1cn(CB(O)O)nn1)C(F)(F)F [4 v] |  | > 100 | > 100 | FLT3 Kinase (IC50, mean±SEM) ([1]; Table 2): lose enzymatic activity |
| O=C(OCc1cn(CB(O)O)nn1)c1ccccc1 [4 w] |  | 1.4 ± 0.3 | > 100 | FLT3 Kinase (IC50, mean±SEM) ([1]; Table 2): do not inhibit FLT3; IC50 (MOLM-14 cells (FLT3-ITD); [5]): 0.35 ± 0.01 µM |
| Nc1ccc(-c2cn(CC(=O)O)nn2)cc1 [5 e, 2‐(4‐(4‐aminophenyl)‐1H‐1,2,3‐triazol‐1‐yl)acetic acid] |  |  |  | IC50 (MV-4-11 cells (FLT3-ITD); [8]): > 100 µM; IC50 [2, 8]: > 100 µM; IC50 (MOLM-14 cells (FLT3-ITD); [8]): > 100 µM |
| CCCCn1cc(-c2ccc(N)cc2)nn1 [6 e, 4‐(1‐butyl‐1H‐1,2,3‐triazol‐4‐yl)aniline] |  |  |  | IC50 (MV-4-11 cells (FLT3-ITD); [8]): > 100 µM; IC50 [2, 8]: > 100 µM; IC50 (MOLM-14 cells (FLT3-ITD); [8]): > 100 µM |
| [Cl-].[Na+] [NaCl] |  |  |  | LD50 [3]: 3000 mg/kg |
| Cc1ccc(C(=O)Nc2ccc(CN3CCN(C)CC3)c(C(F)(F)F)c2)cc1C#Cc1cnc2cccnn12 [ponatinib, reference compound] |  | 0.007 ± 0.002 |  | IC50 (MOLM-14 cells (FLT3-ITD); [5]): 0.001 ± 0.0001 µM |
